ChEMBL document CHEMBL5505992, “Novel membrane-targeting isoxanthohumol-amine conjugates for combating methicillin-resistant Staphylococcus aureus (MRSA) infections” (Eur J Med Chem, 2024)
≈ marks a conversion by molar mass, not a printed value.

Legend:
[1] = tested on: Staphylococcus aureus; experiment: Antibacterial activity against methicillin-resistant Staphylococcus aureus clinical isolate MRSA-14 measured after 16 to 18 hrs by CLSI method; assay type: functional; details: time 16-18 hrs
[2] = tested on: Staphylococcus aureus; experiment: Antibacterial activity against Staphylococcus aureus ATCC 29213 measured after 16 to 18 hrs by CLSI method; assay type: functional; details: time 16-18 hrs
[3] = tested on: Staphylococcus aureus; experiment: Antibacterial activity against methicillin-resistant Staphylococcus aureus clinical isolate MRSA-16 measured after 16 to 18 hrs by CLSI method; assay type: functional; details: time 16-18 hrs
[4] = tested on: Staphylococcus aureus; experiment: Antibacterial activity against methicillin-resistant Staphylococcus aureus clinical isolate MRSA-17 measured after 16 to 18 hrs by CLSI method; assay type: functional; details: time 16-18 hrs
[5] = tested on: Escherichia coli; experiment: Antibacterial activity against Escherichia coli ATCC25922 measured after 16 to 18 hrs by CLSI method; assay type: functional; details: time 16-18 hrs
[6] = tested on: Staphylococcus aureus; experiment: Antibacterial activity against methicillin-resistant Staphylococcus aureus clinical isolate MRSA-20 measured after 16 to 18 hrs by CLSI method; assay type: functional; details: time 16-18 hrs
[7] = tested on: Staphylococcus aureus; experiment: Antibacterial activity against methicillin-resistant Staphylococcus aureus clinical isolate MRSA-23 measured after 16 to 18 hrs by CLSI method; assay type: functional; details: time 16-18 hrs
[8] = tested on: Staphylococcus aureus; experiment: Antibacterial activity against methicillin-resistant Staphylococcus aureus clinical isolate MRSA-13 measured after 16 to 18 hrs by CLSI method; assay type: functional; details: time 16-18 hrs
[9] = Selectivity index, ratio of HC50 for hemolytic activity in sheep erythrocytes to MIC for antibacterial activity against Staphylococcus aureus ATCC 29213; assay type: toxicity, cell-based; details: read-out: Selectivity Index
[10] = tested on: Staphylococcus aureus; experiment: Antibacterial activity against methicillin-resistant Staphylococcus aureus clinical isolate MRSA-21 measured after 16 to 18 hrs by CLSI method; assay type: functional; details: time 16-18 hrs
[11] = tested on: Staphylococcus aureus; experiment: Antibacterial activity against methicillin-resistant Staphylococcus aureus clinical isolate MRSA-18 measured after 16 to 18 hrs by CLSI method; assay type: functional; details: time 16-18 hrs
[12] = tested on: Staphylococcus aureus; experiment: Antibacterial activity against methicillin-resistant Staphylococcus aureus clinical isolate MRSA-22 measured after 16 to 18 hrs by CLSI method; assay type: functional; details: time 16-18 hrs
[13] = tested on: Staphylococcus aureus; experiment: Antibacterial activity against methicillin-resistant Staphylococcus aureus clinical isolate MRSA-11 measured after 16 to 18 hrs by CLSI method; assay type: functional; details: time 16-18 hrs
[14] = Hemolytic activity in sheep erythrocytes incubated for 1 hr by absorbance based analysis; assay type: toxicity, cell-based, Ovis aries, Erythrocyte

Row | SMILES | MIC [1] | MIC [2] | MIC [3] | MIC [4] | MIC [5] | MIC [6] | MIC [7] | MIC [8] | selectivity ratio [9] | MIC [10] | MIC [11] | MIC [12] | MIC [13] | HC50 at 1 h [14]
1 | CCCN(CCC)CCCCOc1ccc(C2CC(=O)c3c(OC)cc(OCCCCN(CCC)CCC)c(CC=C(C)C)c3O2)cc1 (centres undefined) | 16 µg/mL (≈ 24.1 µM) | 16 µg/mL (≈ 24.1 µM) | 16 µg/mL (≈ 24.1 µM) | 16 µg/mL (≈ 24.1 µM) | > 128 µg/mL | 16 µg/mL (≈ 24.1 µM) | 16 µg/mL (≈ 24.1 µM) | 16 µg/mL (≈ 24.1 µM) | > 80 | 16 µg/mL (≈ 24.1 µM) | 32 µg/mL (≈ 48.1 µM) | 16 µg/mL (≈ 24.1 µM) | 16 µg/mL (≈ 24.1 µM) | > 1280 µg/mL
2 | CCCC[N+](C)(CCCC)CCCCOc1ccc(C2CC(=O)c3c(OC)cc(OCCCC[N+](C)(CCCC)CCCC)c(CC=C(C)C)c3O2)cc1.[I-].[I-] (centres undefined) | 0.5 µg/mL | 0.5 µg/mL | 0.25 µg/mL | 0.25 µg/mL | 32 µg/mL | 0.5 µg/mL | 0.5 µg/mL | 0.5 µg/mL | > 2640 | 0.5 µg/mL | 0.5 µg/mL | 1 µg/mL | 0.5 µg/mL | > 1280 µg/mL
3 | CCCCN(CCCC)CCCCOc1ccc(C2CC(=O)c3c(OC)cc(OCCCCN(CCCC)CCCC)c(CC=C(C)C)c3O2)cc1 (centres undefined) | 4 µg/mL (≈ 5.55 µM) | 4 µg/mL (≈ 5.55 µM) | 4 µg/mL (≈ 5.55 µM) | 4 µg/mL (≈ 5.55 µM) | > 128 µg/mL | 4 µg/mL (≈ 5.55 µM) | 8 µg/mL (≈ 11.1 µM) | 8 µg/mL (≈ 11.1 µM) | 300 | 8 µg/mL (≈ 11.1 µM) | 8 µg/mL (≈ 11.1 µM) | 8 µg/mL (≈ 11.1 µM) | 8 µg/mL (≈ 11.1 µM) | 1200 µg/mL
4 | COc1cc(OCCCCCN2CCCC(C)C2)c(CC=C(C)C)c2c1C(=O)CC(c1ccc(OCCCCCN3CCCC(C)C3)cc1)O2 (centres undefined) | 8 µg/mL (≈ 11.6 µM) | 16 µg/mL (≈ 23.2 µM) | 8 µg/mL (≈ 11.6 µM) | 8 µg/mL (≈ 11.6 µM) | > 128 µg/mL | 8 µg/mL (≈ 11.6 µM) | 8 µg/mL (≈ 11.6 µM) | 8 µg/mL (≈ 11.6 µM) | 13.2 | 4 µg/mL (≈ 5.81 µM) | 8 µg/mL (≈ 11.6 µM) | 8 µg/mL (≈ 11.6 µM) | 8 µg/mL (≈ 11.6 µM) | 211 µg/mL
5 | COc1cc(OCCCCCN(CC(C)C)CC(C)C)c(CC=C(C)C)c2c1C(=O)CC(c1ccc(OCCCCCN(CC(C)C)CC(C)C)cc1)O2 (centres undefined) | > 128 µg/mL | > 128 µg/mL | > 128 µg/mL | > 128 µg/mL | > 128 µg/mL | > 128 µg/mL | > 128 µg/mL | > 128 µg/mL |  | > 128 µg/mL | > 128 µg/mL | > 128 µg/mL | > 128 µg/mL | > 1280 µg/mL
